Values quoted from earlier work, collected in US20110061649A1, “DEVICE AND METHOD FOR TREATING RESPIRATORY AND OTHER DISEASES” (priority 2007, published 2011).
“Also recorded” adds a separate entry of the source. Read-outs that look alike come from different tables or passages of the source.

Columns and labels:
[1] = tested on: vancomycin-resistant enterococci; conditions: allicin formulated into creams and soap
[2] = tested on: methicillin-resistant staphylococcus aureus; conditions: allicin formulated into creams and soap
[3] = for storage without losing effectiveness / beneficial properties: Weizmann Institute article

C=CCS[S+]([O-])CC=C (centres unmarked) [allicin]
blocking of alcohol dehydrogenases (alcohol dehydrogenases): blocking | killing of vancomycin-resistant enterococci [1]: killing | killing of methicillin-resistant staphylococcus aureus [2]: killing | level of allicin to which mammals cells proved to be immune (mammals cells): 50 Mm | blocking of cysteine proteinases (cysteine proteinases): blocking | blocking of cysteine proteinases (cysteine proteinases; listed as Allicin): Strongly Inhibits | life span ([3]; room temperature): less than an our; also recorded: about an hour | storage without losing effectiveness / beneficial properties ([3]; listed as natural compound): loses its beneficial properties within hours | life span ([3]; temperature not stated): few hours | preserved stable ([3]; temperature of 4° Celsius): stable for months

C=CCS[S+]([O-])CC=C (centres unmarked) [pure semi-synthetic allicin, allicin]
storage without losing effectiveness / beneficial properties [3]: stored for months without losing its effectiveness
